Measurements from ChEMBL document CHEMBL1629414, “A neuroprotective sulfone of marine origin and the in vivo anti-inflammatory activity of an analogue” (Eur J Med Chem, 2010).
Active and inactive are the calls of the source. No cut-off for these calls is given here.

How the values were obtained:
RAW264.7 [1] = experiment: Cytotoxicity against mouse RAW264.7 cells assessed as inhibition of beta-actin expression at 50 uM by Western blotting; assay type: cell-based; conditions: raw264.7, 50 µM
Rattus norvegicus [2] = experiment: Toxicity in chronic constriction injury neuropathic pain Wistar rat model assessed as effect on locomotor activity at 0.1 to 5 ug, administered intrathecally; assay type: organism-based; conditions: in vivo, icv_or_intrathecal
Rattus norvegicus [3] = experiment: Antiatherosclerotic activity against balloon injury-induced angioplasty in Wistar rat assessed as inhibition of neointimal proliferation at 3 mg/kg/day, sc relative to control; assay type: functional; set-up: scale not given: the % may be the effect or the level left; conditions: route subcutaneous
RAW264.7 [4] = experiment: Antiinflammatory activity in mouse RAW264.7 cells assessed as inhibition of LPS-induced expression of iNOS after treated 10 mins before LPS challenge measured after 16 hrs by Western blotting; assay type: functional, cell-based
Rattus norvegicus [5] = experiment: Antinociceptive activity in chronic constriction injury neuropathic pain Wistar rat model assessed as reduction of paw withdrawal latency at 0.1 to 5 ug, administered intrathecally after 20 mins; assay type: functional, organism-based
Rattus norvegicus [6] = experiment: Toxicity in Lewis rat assessed as neurological deffects at 30 ug/kg, administered intrathecally bid for 5 days; assay type: organism-based; conditions: in vivo, icv_or_intrathecal, 0.03 mg/kg, 120 h
SH-SY5Y [7] = experiment: Neuroprotective activity in human SH-SY5Y cells assessed as protection against 6-OHDA-induced cytotoxicity at 1 uM pretreated 1 hr before 6-OHDA challenge measured after 15 hrs by Alamar blue assay; assay type: functional, cell-based
RAW264.7 [8] = experiment: Antiinflammatory activity in mouse RAW264.7 cells assessed as inhibition of LPS-induced expression of COX-2 treated 10 mins before LPS challenge measured after 16 hrs by Western blotting; assay type: functional, cell-based
Rattus norvegicus [9] = experiment: Antinociceptive activity in intrathecally dosed chronic constriction injury neuropathic pain Wistar rat model assessed as reduction of paw withdrawal latency measured up to 120 mins; assay type: functional
Rattus norvegicus [10] = experiment: Antinociceptive activity in chronic constriction injury neuropathic pain Wistar rat model assessed as reduction of paw withdrawal latency at 5 ug, administered intrathecally after 20 to 120 mins; assay type: functional, organism-based
Rattus norvegicus [11] = experiment: Protection against encephalomyelitis-induced clinical signs in Lewis rat preimmunized with Freund's complete adjuvant at 30 ug/kg, administered intrathecally bid for 5 days from day 7 after immunization; assay type: functional, organism-based
RAW264.7 [12] = experiment: Antiinflammatory activity in mouse RAW264.7 cells assessed as inhibition of LPS-induced expression of iNOS at 10 uM treated 10 mins before LPS challenge measured after 16 hrs by Western blotting relative to control; assay type: functional; set-up: scale not given: the % may be the effect or the level left
RAW264.7 [13] = experiment: Antiinflammatory activity in mouse RAW264.7 cells assessed as inhibition of LPS-induced expression of COX2 at 10 uM treated 10 mins before LPS challenge measured after 16 hrs by Western blotting relative to control; assay type: functional; set-up: scale not given: the % may be the effect or the level left
SH-SY5Y [14] = experiment: Neuroprotective activity in human SH-SY5Y cells assessed as protection against 6-OHDA-induced cytotoxicity pretreated 1 hr before 6-OHDA challenge measured after 15 hrs by Alamar blue assay; assay type: functional
[15] = Solubility of the compound in water; assay type: physicochemical
RAW264.7 [16] = experiment: Cytotoxicity against mouse RAW264.7 cells assessed as inhibition of beta-actin expression at 30 uM by Western blotting; assay type: cell-based; conditions: raw264.7, 30 µM

CC(=O)CCS(=O)(=O)CCO
Activity (RAW264.7 [1]): Toxic
Activity (Rattus norvegicus [2]): Non-toxic
Activity (Rattus norvegicus [3]): 98.1%
IC50 (RAW264.7 [4]): 3.6 µM
Activity (Rattus norvegicus [5]): Active
Activity (Rattus norvegicus [6]): Non-toxic
Activity (SH-SY5Y [7]): inactive
IC50 (RAW264.7 [8]): 32.1 µM
ED50 (Rattus norvegicus [9]): 0.75 µg
Activity (Rattus norvegicus [10]): Active
Activity (Rattus norvegicus [11]): Active

CC(=O)CCSCCO
Activity (RAW264.7 [12]): 59.5%
Activity (RAW264.7 [13]): 91.2%

C=CS(=O)(=O)CCC(C)=O [AUSTRASULFONE]
Activity (SH-SY5Y [14]): Dose-dependent effect
EC50 (SH-SY5Y [14]; read-out: ED50 (the source's name)): 0.011 µM
solubility [15]: > 50 mg/mL
Activity (RAW264.7 [16]): Toxic
